Reference: PubChem BioAssay (NCI)
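Test compounds were applied to cells in 96-well plates for 48 hours at 5 doses. TGI: total growth inhibition.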

Columns and labels:
Assay in all cases: inhibition of tumour cell growth, NCI panel, 48 h
[1] = tested on: 786-0 renal
[2] = tested on: A549 NSCLC
[3] = tested on: ACHN renal
[4] = tested on: BT-549 breast
[5] = tested on: CAKI-1 renal
[6] = tested on: CCRF-CEM leukemia
[7] = tested on: COLO 205 colon
[8] = tested on: DU-145 prostate
[9] = tested on: EKVX NSCLC
[10] = tested on: HCC-2998 colon
[11] = tested on: HCT-116 colon
[12] = tested on: HCT-15 colon
[13] = tested on: HL-60(TB) leukemia
[14] = tested on: HOP-62 NSCLC
[15] = tested on: HOP-92 NSCLC
[16] = tested on: HS 578T breast
[17] = tested on: HT29 colon
[18] = tested on: IGROV1 ovarian
[19] = tested on: K-562 leukemia
[20] = tested on: KM12 colon
[21] = tested on: LOX IMVI melanoma
[22] = tested on: M14 melanoma
[23] = tested on: MALME-3M melanoma
[24] = tested on: MCF7 breast
[25] = tested on: MDA-MB-231 breast
[26] = tested on: MDA-MB-435
[27] = tested on: MDA-N
[28] = tested on: MOLT-4 leukemia
[29] = tested on: NCI-H226 lung
[30] = tested on: NCI-H23 lung
[31] = tested on: NCI-H460 lung
[32] = tested on: NCI-H522 lung
[33] = tested on: NCI/ADR-RES ovarian
[34] = tested on: OVCAR-3 ovarian
[35] = tested on: OVCAR-4 ovarian
[36] = tested on: OVCAR-5 ovarian
[37] = tested on: OVCAR-8 ovarian
[38] = tested on: PC-3 prostate
[39] = tested on: RPMI-8226 leukemia
[40] = tested on: SF-268 CNS
[41] = tested on: SF-295 CNS
[42] = tested on: SF-539 CNS
[43] = tested on: SK-MEL-2 melanoma
[44] = tested on: SK-MEL-28 melanoma
[45] = tested on: SK-MEL-5 melanoma
[46] = tested on: SK-OV-3 ovarian
[47] = tested on: SN12C renal
[48] = tested on: SNB-19 CNS
[49] = tested on: SNB-75 CNS
[50] = tested on: SR leukemia
[51] = tested on: SW-620 colon
[52] = tested on: T-47D breast
[53] = tested on: TK-10 renal
[54] = tested on: U251 CNS
[55] = tested on: UACC-257 melanoma
[56] = tested on: UACC-62 melanoma
[57] = tested on: UO-31 renal
[58] = tested on: A498 renal
[59] = tested on: RXF 393 renal

CCOc1cc(C2SCC(=O)N2c2ccc(Oc3ccc(Cl)cc3)c(Cl)c2)ccc1O (centres undefined)
TGI [1]: 45.8 µM | TGI [2]: 39.7 µM | TGI [3]: 31.2 µM | TGI [4]: 31.5 µM | TGI [5]: 32.6 µM | TGI [6]: 49.5 µM | TGI [7]: 41.3 µM | TGI [8]: 31.3 µM | TGI [9]: 33.4 µM | TGI [10]: 35.8 µM | TGI [11]: 25.1 µM | TGI [12]: 37 µM | TGI [13]: 47 µM | TGI [14]: 40.8 µM | TGI [15]: 33.7 µM | TGI [16]: 37.1 µM | TGI [17]: 31.8 µM | TGI [18]: 32 µM | TGI [19]: > 100 µM | TGI [20]: 31.8 µM | TGI [21]: 38.7 µM | TGI [22]: 56.1 µM | TGI [23]: 32.4 µM | TGI [24]: 56.4 µM | TGI [25]: 36 µM | TGI [26]: 42 µM | TGI [27]: 41.9 µM | TGI [28]: 64.4 µM | TGI [29]: 31.1 µM | TGI [30]: 32.3 µM | TGI [31]: 39.1 µM | TGI [32]: 28.1 µM | TGI [33]: 36.9 µM | TGI [34]: 30.6 µM | TGI [35]: 31.1 µM | TGI [36]: 53.3 µM | TGI [37]: 38.2 µM | TGI [38]: 33.4 µM | TGI [39]: 80.1 µM | TGI [40]: 30.9 µM | TGI [41]: 34.1 µM | TGI [42]: 32.5 µM | TGI [43]: 32.7 µM | TGI [44]: 38.2 µM | TGI [45]: 31.5 µM | TGI [46]: 37.3 µM | TGI [47]: 59.3 µM | TGI [48]: 34.8 µM | TGI [49]: 37.3 µM | TGI [50]: 25.2 µM | TGI [51]: 37.7 µM | TGI [52]: 40.4 µM | TGI [53]: 34.2 µM | TGI [54]: 35.7 µM | TGI [55]: 33.3 µM | TGI [56]: 30.3 µM | TGI [57]: 21.7 µM

O=c1[nH]c2nnc(COc3ccc(Cl)cc3Cl)n2nc1Cc1ccccc1
TGI [1]: 43.8 µM | TGI [58]: 82 µM | TGI [2]: > 100 µM | TGI [3]: > 100 µM | TGI [4]: > 100 µM | TGI [5]: > 100 µM | TGI [6]: > 100 µM | TGI [7]: > 100 µM | TGI [8]: > 100 µM | TGI [9]: > 100 µM | TGI [11]: > 100 µM | TGI [12]: > 100 µM | TGI [13]: > 100 µM | TGI [14]: > 100 µM | TGI [15]: 69.5 µM | TGI [16]: > 100 µM | TGI [17]: > 100 µM | TGI [18]: 76.6 µM | TGI [19]: > 100 µM | TGI [20]: > 100 µM | TGI [21]: > 100 µM | TGI [22]: > 100 µM | TGI [23]: > 100 µM | TGI [24]: > 100 µM | TGI [25]: > 100 µM | TGI [26]: > 100 µM | TGI [27]: > 100 µM | TGI [28]: > 100 µM | TGI [29]: 67.5 µM | TGI [30]: > 100 µM | TGI [31]: > 100 µM | TGI [32]: > 100 µM | TGI [33]: > 100 µM | TGI [34]: 74.3 µM | TGI [35]: > 100 µM | TGI [36]: > 100 µM | TGI [37]: 53.9 µM | TGI [38]: > 100 µM | TGI [39]: > 100 µM | TGI [59]: 44.6 µM | TGI [40]: > 100 µM | TGI [41]: > 100 µM | TGI [42]: 39.8 µM | TGI [43]: > 100 µM | TGI [44]: > 100 µM | TGI [45]: > 100 µM | TGI [46]: 58.8 µM | TGI [47]: > 100 µM | TGI [48]: > 100 µM | TGI [49]: 38.8 µM | TGI [50]: > 100 µM | TGI [51]: > 100 µM | TGI [52]: > 100 µM | TGI [53]: 96.5 µM | TGI [54]: 53.1 µM | TGI [55]: > 100 µM | TGI [57]: > 100 µM
